Measured values from US20230173018A1, “CASPOFUNGIN DERIVATIVES AND ASSAYS FOR EVALUATING ANTIFUNGAL TREATMENT EFFICACY” (priority 2020, published 2023).
In brackets after ≈: the same amount, converted by molar mass. Where two headings read alike, the source gives them in different places.

Key:
Format in all cases: cell-based
[1] = system: C. albicans DPL1015 (DP-A15); assay: microbe, parasite or virus in culture; settings: strain no. 2, DPL1015 (DP-A15), parental SC5314, FKS1 mutant HS1-S645S/P
Excerpt: (§1) The antifungal activities of compounds 1a, 1 and 2 (collectively: caspofungin derivatives) were compared to that of caspofungin and CSF-BOD using a panel of 49 C. albicans and C. glabrata strains (Tables 1 and 2). The panel included ATCC strains and clinical isolates as well a collection of caspofungin-responsive strains and their corresponding isogenic caspofungin-resistant derivatives, constructed by introducing point mutations within and near the defined hotspots in the FKS1 and/or FKS2 genes of the GS complex. Minimal inhibitory concentration (MIC) values for all strains were determined using the broth double dilution method and are summarized in FIG. 2 and Table 2. […] The clinical breakpoints (threshold) for caspofungin-resistance in C. albicans and C. glabrata are 1 μg/mL and 0.5 μg/mL, respectively.

[2] = system: C. albicans T-2068 (DP-C42); assay: microbe, parasite or virus in culture; settings: strain no. 4, T-2068 (DP-C42), parental SC5314, FKS1 HS1-F641S mutation
Excerpt: as §1

[3] = system: C. albicans T-2069 (DP-85); assay: microbe, parasite or virus in culture; settings: strain no. 14, T-2069 (DP-85), clinical isolate, FKS1 HS1-S645F mutation
Excerpt: as §1

[4] = system: C. albicans T-2074 (DP-122); assay: microbe, parasite or virus in culture; settings: strain no. 12, T-2074 (DP-122), clinical isolate, FKS1 HS1-P649H mutation
Excerpt: as §1

C. glabrata DPL1086 = assay: microbe, parasite or virus in culture; settings: strain no. 17, DPL1086, parental ATCC 90030, FKS1 mutant HS1-S629P
Excerpt: as §1

[5] = system: C. glabrata T-985 (11-076); assay: microbe, parasite or virus in culture
Excerpt: as §1

C. glabrata TGL00054 = assay: microbe, parasite or virus in culture; settings: strain no. 19, TGL00054, parental CST109, FKS2 mutant
Excerpt: as §1

C. glabrata TGL00056 = assay: microbe, parasite or virus in culture; settings: strain no. 22, TGL00056, parental CST34, FKS mutant
Excerpt: as §1

C. glabrata TGL00258 = assay: microbe, parasite or virus in culture; settings: strain no. 25, TGL00258, parental CST34, FKS mutant
Excerpt: as §1

C. glabrata TGL00265 = assay: microbe, parasite or virus in culture; settings: strain no. 30, TGL00265, parental CST78, FKS mutant
Excerpt: as §1

C. glabrata TGL00277 = assay: microbe, parasite or virus in culture; settings: strain no. 33, TGL00277, parental EF1620, FKS mutant
Excerpt: as §1

C. glabrata TGL00291 = assay: microbe, parasite or virus in culture; settings: strain no. 36, TGL00291, parental BG2, FKS mutant
Excerpt: as §1

C. glabrata TGL00293 = assay: microbe, parasite or virus in culture; settings: strain no. 37, TGL00293, parental BG2, FKS mutant
Excerpt: as §1

C. glabrata TGL00294 = assay: microbe, parasite or virus in culture; settings: strain no. 38, TGL00294, parental BG2, FKS mutant
Excerpt: as §1

C. albicans ATCC 10231 = assay: MIC, broth double dilution; settings: strain no. 11, C. albicans ATCC 10231
Excerpt: as §1

C. albicans ATCC 24433 = assay: MIC, broth double dilution; settings: strain no. 6, C. albicans ATCC 24433
Excerpt: as §1

C. albicans BWP17 = assay: MIC, broth double dilution
Excerpt: as §1

C. albicans SC5314 = assay: MIC, broth double dilution; settings: strain no. 1, C. albicans SC5314, WT
Excerpt: as §1

C. albicans SN152 = assay: MIC, broth double dilution
Excerpt: as §1

C. glabrata ATCC 15126 = assay: MIC, broth double dilution; settings: strain no. 41, C. glabrata ATCC 15126
Excerpt: as §1

C. glabrata ATCC 2001 = assay: MIC, broth double dilution; settings: strain no. 39, C. glabrata ATCC 2001
Excerpt: as §1

C. glabrata ATCC 66032 = assay: MIC, broth double dilution; settings: strain no. 40, C. glabrata ATCC 66032
Excerpt: as §1

C. glabrata ATCC 90030 = assay: MIC, broth double dilution; settings: strain no. 16, C. glabrata ATCC 90030, WT
Excerpt: as §1

C. glabrata BG2 = assay: MIC, broth double dilution; settings: strain no. 34, C. glabrata BG2
Excerpt: as §1

C. glabrata CST109 = assay: MIC, broth double dilution; settings: strain no. 18, C. glabrata CST109 (parental)
Excerpt: as §1

C. glabrata CST34 = assay: MIC, broth double dilution; settings: strain no. 21, C. glabrata CST34 (parental)
Excerpt: as §1

C. glabrata EF1620 = assay: MIC, broth double dilution; settings: strain no. 31, C. glabrata EF1620
Excerpt: as §1

[6] = system: C. glabrata T-190 (11-304); assay: MIC, broth double dilution; settings: strain no. 42, T-190 (11-304), clinical isolate
Excerpt: as §1

[7] = system: C. glabrata T-191 (11-331); assay: MIC, broth double dilution; settings: strain no. 43, T-191 (11-331), clinical isolate
Excerpt: as §1

C. glabrata T-192 (1775) = assay: MIC, broth double dilution; settings: strain no. 44, T-192 (1775), clinical isolate
Excerpt: as §1

[8] = system: C. glabrata T-193 (11-282); assay: MIC, broth double dilution; settings: strain no. 45, T-193 (11-282), clinical isolate
Excerpt: as §1

[9] = system: C. glabrata T-982 (11-181); assay: MIC, broth double dilution; settings: strain no. 46, T-982 (11-181), clinical isolate
Excerpt: as §1

[10] = system: C. glabrata T-983 (11-079); assay: MIC, broth double dilution; settings: strain no. 47, T-983 (11-079), clinical isolate
Excerpt: as §1

[11] = system: C. glabrata T-984 (11-078); assay: MIC, broth double dilution; settings: strain no. 48, T-984 (11-078), clinical isolate
Excerpt: as §1

[12] = strain no. 49, T-985 (11-076), clinical isolate
[13] = strain no. 9, BWP17, parental RM1000
[14] = strain no. 5, C. albicans SN152

SMILES	MIC [1]	MIC [2]	MIC [3]	MIC [4]	MIC (C. glabrata DPL1086)	MIC (C. glabrata TGL00054)	MIC (C. glabrata TGL00056)	MIC (C. glabrata TGL00258)	MIC (C. glabrata TGL00265)	MIC (C. glabrata TGL00277)	MIC (C. glabrata TGL00291)	MIC (C. glabrata TGL00293)	MIC (C. glabrata TGL00294)	MIC (C. albicans ATCC 10231)	MIC (C. albicans ATCC 24433)	MIC (C. albicans SC5314)	MIC (C. glabrata ATCC 15126)	MIC (C. glabrata ATCC 2001)	MIC (C. glabrata ATCC 66032)	MIC (C. glabrata ATCC 90030)	further results
C#CCOc1ccc([C@H](O)[C@@H](O)[C@@H]2NC(=O)[C@@H]3C[C@@H](O)CN3C(=O)[C@H]([C@@H](C)O)NC(=O)[C@@H](NC(=O)CCCCCCCC[C@@H](C)C[C@@H](C)CC)C[C@@H](O)[C@@H](NCCN)NC(=O)[C@@H]3[C@@H](O)CCN3C(=O)[C@H]([C@H](O)CCN)NC2=O)cc1 [Compound 1a]	8 µg/mL (≈ 7.07 µM)	16 µg/mL (≈ 14.1 µM)	32 µg/mL (≈ 28.3 µM)	16 µg/mL (≈ 14.1 µM)	4 µg/mL (≈ 3.54 µM)	>64 µg/mL	>64 µg/mL	>64 µg/mL	>64 µg/mL	>64 µg/mL	>64 µg/mL	>64 µg/mL	>64 µg/mL	0.125 µg/mL (≈ 0.11 µM)	0.125 µg/mL (≈ 0.11 µM)	0.125 µg/mL (≈ 0.11 µM)	1 µg/mL (≈ 0.884 µM)	0.5 µg/mL (≈ 0.442 µM)	1 µg/mL (≈ 0.884 µM)	1 µg/mL (≈ 0.884 µM)	MIC [5, 12]: 0.5 µg/mL (≈ 0.442 µM); MIC (C. albicans BWP17; [13]): 0.063 µg/mL (≈ 0.0557 µM); MIC (C. albicans SN152; [14]): 0.063 µg/mL (≈ 0.0557 µM); MIC (C. glabrata BG2): 0.5 µg/mL (≈ 0.442 µM); MIC (C. glabrata CST109): 1 µg/mL (≈ 0.884 µM); MIC (C. glabrata CST34): 0.25 µg/mL (≈ 0.221 µM); MIC (C. glabrata EF1620): 0.5 µg/mL (≈ 0.442 µM); MIC [6]: 0.5 µg/mL (≈ 0.442 µM); MIC [7]: 0.25 µg/mL (≈ 0.221 µM); MIC (C. glabrata T-192 (1775)): 0.5 µg/mL (≈ 0.442 µM); MIC [8]: 1 µg/mL (≈ 0.884 µM); MIC [9]: 0.25 µg/mL (≈ 0.221 µM); MIC [10]: 0.25 µg/mL (≈ 0.221 µM); MIC [11]: 0.5 µg/mL (≈ 0.442 µM)
CC[C@H](C)C[C@H](C)CCCCCCCCC(=O)N[C@H]1C[C@@H](O)[C@@H](NCCN)NC(=O)[C@@H]2[C@@H](O)CCN2C(=O)[C@H]([C@H](O)CCN)NC(=O)[C@H]([C@H](O)[C@@H](O)c2ccc(OCc3cn(CCCNc4ccc([N+](=O)[O-])c5nonc45)nn3)cc2)NC(=O)[C@@H]2C[C@@H](O)CN2C(=O)[C@H]([C@@H](C)O)NC1=O [Compound 2]	32 µg/mL (≈ 22.9 µM)	64 µg/mL (≈ 45.9 µM)	>64 µg/mL	64 µg/mL (≈ 45.9 µM)	32 µg/mL (≈ 22.9 µM)	>64 µg/mL	>64 µg/mL	>64 µg/mL	>64 µg/mL	>64 µg/mL	>64 µg/mL	>64 µg/mL	>64 µg/mL	2 µg/mL (≈ 1.43 µM)	1 µg/mL (≈ 0.717 µM)	1 µg/mL (≈ 0.717 µM)	4 µg/mL (≈ 2.87 µM)	2 µg/mL (≈ 1.43 µM)	2 µg/mL (≈ 1.43 µM)	4 µg/mL (≈ 2.87 µM)	MIC [5, 12]: 4 µg/mL (≈ 2.87 µM); MIC (C. albicans BWP17; [13]): 1 µg/mL (≈ 0.717 µM); MIC (C. albicans SN152; [14]): 1 µg/mL (≈ 0.717 µM); MIC (C. glabrata BG2): 4 µg/mL (≈ 2.87 µM); MIC (C. glabrata CST109): 4 µg/mL (≈ 2.87 µM); MIC (C. glabrata CST34): 4 µg/mL (≈ 2.87 µM); MIC (C. glabrata EF1620): 2 µg/mL (≈ 1.43 µM); MIC [6]: 2 µg/mL (≈ 1.43 µM); MIC [7]: 2 µg/mL (≈ 1.43 µM); MIC (C. glabrata T-192 (1775)): 2 µg/mL (≈ 1.43 µM); MIC [8]: 4 µg/mL (≈ 2.87 µM); MIC [9]: 2 µg/mL (≈ 1.43 µM); MIC [10]: 2 µg/mL (≈ 1.43 µM); MIC [11]: 2 µg/mL (≈ 1.43 µM)
CN(C)c1ccc2c(-c3ccc(C(=O)NCCCN=[N+]=[N-])cc3C(=O)[O-])c3ccc(=[N+](C)C)cc-3oc2c1 [Compound 5-TMR-azide]	>64 µg/mL	>64 µg/mL	>64 µg/mL	>64 µg/mL	>64 µg/mL	>64 µg/mL	>64 µg/mL	>64 µg/mL	>64 µg/mL	>64 µg/mL	>64 µg/mL	>64 µg/mL	>64 µg/mL	>64 µg/mL	>64 µg/mL	>64 µg/mL	>64 µg/mL	>64 µg/mL	>64 µg/mL	>64 µg/mL	MIC [5]: >64 µg/mL; MIC (C. albicans BWP17): >64 µg/mL; MIC (C. albicans SN152): >64 µg/mL; MIC (C. glabrata BG2): >64 µg/mL; MIC (C. glabrata CST109): >64 µg/mL; MIC (C. glabrata CST34): >64 µg/mL; MIC (C. glabrata EF1620): >64 µg/mL; MIC [6]: >64 µg/mL; MIC [7]: >64 µg/mL; MIC (C. glabrata T-192 (1775)): >64 µg/mL; MIC [8]: >64 µg/mL; MIC [9]: >64 µg/mL; MIC [10]: >64 µg/mL; MIC [11]: >64 µg/mL
